Experimental data as given in patent US20230286973A1, “PROTEIN SECRETION INHIBITORS” (KEZAR LIFE SCIENCES, priority 2020, published 2023).

Key:
[1] = test system: HER3-ss+4aa/Gaussia Luciferase; assay: Dox-Induced Her3-ss-Gluc Assay; format: cell-based; settings: 24 hr Dox induction; 293FRT/TO cells; read-out: 24 hr Dox Inducible Her3(ss + 4)Gluc 293FRT/TO: Mean IC50
Procedure, shortened: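 Flp-In 293 T-REx cells, stable HER3-ss+4aa/Gaussia luciferase insert, hygromycin/blasticidin selected; plated day before; compound in DMSO/media + doxycycline; 37° C., 5% CO2.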

[2] = test system: TNFα-FL/Gaussia Luciferase; assay: Dox Induced TNFα-FL-Gluc Assay; format: cell-based; settings: for IC50: 24 hr Dox induction, 293FRT/TO cells, read-out: 24 hr Dox Inducible TNFaFLGluc 293FRT/TO: Mean IC50; for 24 hr Dox Inducible TNFaFLGluc 293FRT/TO: TNF/PD1: ratio of TNFaFLGluc IC50 to PD1ssGluc IC50
Procedure, shortened: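 Cell line: stable Flp-In 293 T-REx, TNFα-FL(1-233)-Gaussia luciferase fusion, T-REx-inducible. Plated day -1; compounds in DMSO/media + doxycycline, 37 °C, 5% CO2. Undefined stereocentres = mixture tested.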

[3] = Liver Microsome Stability Assay (rat); settings: rat liver microsomes, with NADPH, 1.0 uM compound
Description: (§1) Stability of a compound was assessed in the presence of liver microsomes from various sources—mouse, rat, monkey and human liver microsomes. 1.0 uM compound, 0.4% DMSO in 0.1 M Potassium Phosphate with 1.0 mg/mL liver microsomes, were incubated at 37° C. with or without 1 mM NADPH. The samples were quenched at 0, and 30 minutes.

[4] = Liver Microsome Stability Assay (human); settings: human liver microsomes, with NADPH, 1.0 uM compound
Description: as §1

[5] = test system: multiple myeloma cell line NCI-H929; assay: H929 Cell Viability Assay; format: cell-based, human; settings: Homo sapiens, NCI-H929, 48 h, NCI-H929 cells, Celltiter-Glo
Procedure, shortened: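 Cells in RPMI 1640/10% FBS; compound dilutions in DMSO/media; 48 h, 37° C, 5% CO2; CellTiter-Glo luciferase readout for viability.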

[6] = test system: PD1-ss+10aa/Gaussia Luciferase; assay: Dox-Induced PD1-ss-Gluc Assay; format: cell-based; settings: 24 hr Dox induction; 293FRT/TO cells; read-out: 24 hr Dox Inducible PD1ssGluc 293FRT/TO: Mean IC50
Procedure, shortened: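 Compounds were added in DMSO/media with doxycycline and incubated at 37 °C, 5% CO2, on 293 T-REx cells plated one day earlier. These cells stably express, under tetracycline-regulated control, a Gaussia luciferase fused to the PD1 signal peptide plus 10 residues. Structures drawn without stereochemistry were tested as stereoisomer mixtures.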

[7] = Liver Microsome Stability Assay (mouse); settings: mouse liver microsomes, with NADPH, 1.0 uM compound
Description: as §1

[8] = test system: IL-2-FL/Gaussia Luciferase; assay: Dox Induced IL2-FL-Gluc Assay; format: cell-based; settings: for IC50: 24 hr Dox induction, 293FRT/TO cells, read-out: 24 hr Dox Inducible IL2FLGluc 293FRT/TO: Mean IC50; for 24 hr Dox Inducible IL2FLGluc 293FRT/TO: IL2/PD1: ratio of IL2FLGluc IC50 to PD1ssGluc IC50
Procedure, shortened: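 Stable Flp-In 293 T-REx line, Tet-regulated IL-2 (aa 1-153)–Gaussia luciferase fusion; hygromycin/blasticidin selected. Plated day -1; compound + doxycycline added next day; 37° C, 5% CO2.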

[9] = Liver Microsome Stability Assay (monkey); settings: monkey liver microsomes, with NADPH, 1.0 uM compound
Description: as §1

[10] = test system: multiple myeloma cell line U266B1; assay: U266 Cell Viability Assay; format: cell-based, human; settings: Homo sapiens, U-266, 48 h, U266B1 cells, Celltiter-Glo
Procedure, shortened: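 Luminescent ATP read-out (CellTiter-Glo) after 48 h compound exposure at 37° C., 5% CO2; cells maintained in RPMI 1640/10% FBS/2 mM glutamine/pen-strep, compounds diluted in DMSO/media.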

Row | Compound | IC50 [1] [nM] | IC50 [2] [nM] | Liver Microsome Stability (Multiple Species): Rat - % Remaining after 30 min w/NADPH [3] [%] | Liver Microsome Stability (Multiple Species): Human - % Remaining after 30 min w/NADPH [4] [%] | EC50 [5] [nM] | IC50 [6] [nM] | Liver Microsome Stability (Multiple Species): Mouse - % Remaining after 30 min w/NADPH [7] [%] | IC50 [8] [nM] | Liver Microsome Stability (Multiple Species): Monkey - % Remaining after 30 min w/NADPH [9] [%] | EC50 [10] [µM] | 24 hr Dox Inducible TNFaFLGluc 293FRT/TO: TNF/PD1 [2] | 24 hr Dox Inducible IL2FLGluc 293FRT/TO: IL2/PD1 [8]
1 | CN(C)C(=O)N1CC(Oc2ccc(N3CCC[C@@H]3c3csc(NC(=O)c4cccn4Cc4ccnc(F)c4)n3)cc2)C1 [Compound A131, (R)-N-(4-(1-(4-((1-(dimethylcarbamoyl)azetidin-3-yl)oxy)phenyl)pyrrolidin-2-yl)thiazol-2-yl)-1-((2-fluoropyridin-4-yl)methyl)-1H-pyrrole-2-carboxamide] | 48.1 | 508 | 42.9 | 11.8 | 1110 | 30.9 | 20.4 | 64.7 | 6.3 | > 25 | 16.4 | 2.1
2 | CS(=O)(=O)N1CC(Oc2ccc(N3CCC[C@@H]3c3csc(NC(=O)c4cccn4Cc4ccnc(F)c4)n3)cc2)C1 [Compound A132, (R)-1-((2-fluoropyridin-4-yl)methyl)-N-(4-(1-(4-((1-(methylsulfonyl)azetidin-3-yl)oxy)phenyl)pyrrolidin-2-yl)thiazol-2-yl)-1H-pyrrole-2-carboxamide] | 95 | 1060 | 47.1 | 15.1 | 2520 | 57.3 | 34.6 | 105 | 8.42 | > 25 | 18.5 | 1.8
3 | CC(=O)N1CCC(Oc2ccc(N3CCC[C@@H]3c3csc(NC(=O)c4cccn4Cc4ccnc(F)c4)n3)c(C#N)c2)CC1 [Compound A133, (R)-N-(4-(1-(4-((1-acetylpiperidin-4-yl)oxy)-2-cyanophenyl)pyrrolidin-2-yl)thiazol-2-yl)-1-((2-fluoropyridin-4-yl)methyl)-1H-pyrrole-2-carboxamide] | 64.2 | 893 | 1.42 | 0.61 | 2010 | 61 | 0.98 | 81.7 | 0.15 | > 25 | 14.6 | 1.3
4 | O=C(Nc1nc([C@H]2CCCN2c2ccc(OCCO)cc2)cs1)c1cccn1Cc1ccnc(F)c1 [Compound A134, (R)-1-((2-fluoropyridin-4-yl)methyl)-N-(4-(1-(4-(2-hydroxyethoxy)phenyl)pyrrolidin-2-yl)thiazol-2-yl)-1H-pyrrole-2-carboxamide] | 47.8 | 526 | 13.6 | 19.3 | 849 | 27.3 | 2.18 | 42.4 | 13.5 | > 25 | 19.3 | 1.6

More lines, main results first:

Row | IC50 [1] [nM] | IC50 [2] [nM] | Liver Microsome Stability (Multiple Species): Rat - % Remaining after 30 min w/NADPH [3] [%] | Liver Microsome Stability (Multiple Species): Human - % Remaining after 30 min w/NADPH [4] [%] | EC50 [5] [nM] | IC50 [6] [nM] | Liver Microsome Stability (Multiple Species): Mouse - % Remaining after 30 min w/NADPH [7] [%] | IC50 [8] [nM] | Liver Microsome Stability (Multiple Species): Monkey - % Remaining after 30 min w/NADPH [9] [%] | EC50 [10] [µM] | Compound | 24 hr Dox Inducible TNFaFLGluc 293FRT/TO: TNF/PD1 [2] | 24 hr Dox Inducible IL2FLGluc 293FRT/TO: IL2/PD1 [8]
5 | 34.2 | 512 | 57.9 | 67.1 | 692 | 15.2 | 56.5 | 52.5 | 32.1 | > 25 | NC(=O)N1CCC(Oc2ccc(N3CCC[C@@H]3c3csc(NC(=O)c4cccn4Cc4ccnc(F)c4)n3)cc2)CC1 [Compound A135, (R)-4-(4-(2-(2-(1-((2-fluoropyridin-4-yl)methyl)-1H-pyrrole-2-carboxamido)thiazol-4-yl)pyrrolidin-1-yl)phenoxy)piperidine-1-carboxamide] | 33.6 | 3.4
6 | 86.7 | 1010 | 15.7 | 15.6 | 2410 | 59.6 | 2.63 | 186 | 0.44 | > 25 | CNC(=O)N1CCC(Oc2ccc(N3CCC[C@@H]3c3csc(NC(=O)c4cccn4Cc4ccnc(F)c4)n3)cc2)CC1 [Compound A136, (R)-4-(4-(2-(2-(1-((2-fluoropyridin-4-yl)methyl)-1H-pyrrole-2-carboxamido)thiazol-4-yl)pyrrolidin-1-yl)phenoxy)-N-methylpiperidine-1-carboxamide] | 16.9 | 3.1
7 | 51.5 | 566 | 24.2 | 4.35 | 948 | 32.2 | 1.78 | 61.4 | 2.57 | > 25 | CN(C)C(=O)N1CCC(Oc2ccc(N3CCC[C@@H]3c3csc(NC(=O)c4cccn4Cc4ccnc(F)c4)n3)cc2)CC1 [Compound A137, (R)-4-(4-(2-(2-(1-((2-fluoropyridin-4-yl)methyl)-1H-pyrrole-2-carboxamido)thiazol-4-yl)pyrrolidin-1-yl)phenoxy)-N,N-dimethylpiperidine-1-carboxamide] | 17.6 | 1.9
8 | 167 | 1600 | 37.2 | 25.1 | 2570 | 125 | 25.2 | 172 | 6.25 | > 25 | O=C(Nc1nc([C@H]2CCCN2c2ccc(OC3CCS(=O)(=O)CC3)cc2)cs1)c1cccn1Cc1ccnc(F)c1 [Compound A138, (R)-N-(4-(1-(4-((1,1-dioxidotetrahydro-2H-thiopyran-4-yl)oxy)phenyl)pyrrolidin-2-yl)thiazol-2-yl)-1-((2-fluoropyridin-4-yl)methyl)-1H-pyrrole-2-carboxamide] | 12.8 | 1.4
